Reference: US20180125993A1 (BEIJING COTIMES BIOTECH COMPANY LIMITED, priority 2014, published 2018)
Marks after values point to notes of the source that are not given here.

Key:
[1] = system: H2122; assay: Human lung cancer H2122 subcutaneous model (Day 38 after treatment); conditions: for Tumor regression: treatment groups
[2] = system: colon cancer, CS263, 1#; assay: Patients primary tumor tissue subcutaneous model (Day 35 after treatment); format: in vivo, nude mice
Description: (§1) Fresh primary tumor tissues from patients were implanted in NOD/SCID mice's flank, which developed into a primary tumor, which was then transferred to the nude mice's flank to allow the tumor reaching an exponential growth phase, and the tumor was named 1# tumor, and so on. When the tumor volume and number reached passage requirements, they were implanted into the right flank of nude mice. When the tumors' average volumes reached 100-200 mm^3, the mice were grouped.
(§2) The bodyweight and major/minor axis of mice were measured twice a week, and Tumor Growth Inhibition (TGI) and tumor volume were calculated same as in 5.1.5. In addition, to evaluate the synergetic effect of drug combination in tumor growth, Jin Zhengjun Q value judgment method was used with the follow formula: Q=Ea+b/(Ea+Eb−Ea×Eb). Ea+b is the inhibition ratio of drug combination, Ea and Eb are the inhibition ratio of each of drug treatment when it is administered alone. […] The animals were monitored, and when the experiments were concluded, mice were sacrificed and tumors were extracted and weighted. All the animal experiments confer to the regulations of animal's welfare and the management of experimental animal usage.
(§3) Tumor volumes were represented with average±standard error. Data analysis was done using Spss16.0, One-Way ANOVA, LSD (homogeneity of variance) or Dunnett T3 (non-homogeneity of variance). […] P<0.05 represents significant difference.

[3] = system: Colo205; assay: Human colon cancer Colo205 subcutaneous model (Day 28 after treatment); format: in vivo, nude mice
Protocol: (§4) Tumor cells (i.e., MIA-PaCa-2, WiDr, H2122, colo205) were inoculated in nude mice's flank at 5×10^6 cells per mouse. The mice were grouped when the average volume of tumors reached about 100˜200 mm^3. “QW”=weekly dose. “Q3d”=dosed every third day. “BiW”=biweekly.
(§5) The bodyweight and major/minor axis of the mice were measured twice a week, and the tumor volumes were calculated using the formula: Tumor volume=1/2×major axis[…]. […] “T” represents average tumor volume of the experimental group (cm^3), and “C” represents average tumor volume of the control group (cm^3). The animals were monitored at all times. The bodyweight and major/minor axis or mice were measured twice a week.
(§6) Tumor volumes were represented with average±standard error. […] P<0.05 represents significant difference.

[4] = system: WiDr; assay: Human colon cancer Widr subcutaneous model (Day 27 after treatment); format: in vivo, nude mice
Protocol: as §4, §5, §6

[5] = system: colon cancer, CS182, 5#; assay: Patients primary tumor tissue subcutaneous model (Day 27 after treatment); format: in vivo, nude mice; conditions: Irinotecan 50 mg/kg i.v. BiW × 6 times
Description: as §1, §2, §3

[6] = system: lung cancer, CS225, 1#; assay: Patients primary tumor tissue subcutaneous model (Day 37 after treatment); format: in vivo, nude mice; conditions: cisplatin 5 mg/kg i.p. QW × 2w
Description: as §1, §2, §3

[7] = system: colon cancer, CS146, 2#; assay: Patients primary tumor tissue subcutaneous model (Day 30 after treatment); format: in vivo, nude mice; conditions: 5-Fu 50 mg/kg i.p. QW × 6w alone
Description: as §1, §2
Tumor volumes were represented with average±standard error. Data analysis was done using Spss16.0, One-Way ANOVA, LSD (homogeneity of variance) or Dunnett T3 (non-homogeneity of variance). […]

[8] = system: MIA-PaCa-2; assay: Human pancreatic cancer MIA-PaCa-2 subcutaneous model (34 days of treatment); conditions: for Tumor regression: treatment groups
[9] = molecular target: T1, OPG-His (recombinant human osteroprotegerin/TNFRSF11B, Wuxi Pharmatech) (human, UniProt O00300 22-401, limits assumed); assay: CLEIA, antigen coated on microplate, HRP secondary antibody
T1 construct: Commercial protein; also called osteoprotegerin; not shown: His tag
T1 sequence (looked up): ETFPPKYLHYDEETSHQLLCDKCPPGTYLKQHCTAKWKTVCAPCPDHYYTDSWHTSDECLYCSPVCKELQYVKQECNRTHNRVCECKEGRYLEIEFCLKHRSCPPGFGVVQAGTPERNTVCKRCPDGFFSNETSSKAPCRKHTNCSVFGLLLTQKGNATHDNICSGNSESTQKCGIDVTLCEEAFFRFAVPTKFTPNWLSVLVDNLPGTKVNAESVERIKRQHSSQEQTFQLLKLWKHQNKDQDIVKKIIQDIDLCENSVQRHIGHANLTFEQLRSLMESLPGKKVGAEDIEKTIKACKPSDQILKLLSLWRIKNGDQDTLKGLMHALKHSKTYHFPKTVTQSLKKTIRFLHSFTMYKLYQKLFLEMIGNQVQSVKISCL

[10] = molecular target: T2, DcR1-His (recombinant human TRAIL R3/TNFRSF10C, Novoprotein Science) (human, UniProt O14798 26-221, limits assumed); assay: as above
T2 construct: Commercial protein; not shown: His tag
T2 sequence (looked up): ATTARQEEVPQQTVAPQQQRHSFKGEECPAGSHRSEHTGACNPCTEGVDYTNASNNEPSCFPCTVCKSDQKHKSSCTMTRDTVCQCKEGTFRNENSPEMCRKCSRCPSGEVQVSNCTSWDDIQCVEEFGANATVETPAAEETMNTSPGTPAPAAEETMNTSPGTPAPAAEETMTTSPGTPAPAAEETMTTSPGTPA

[11] = molecular target: T3, DcR2-His (recombinant human TRAIL R4/TNFRSF10D, Sino Biological) (human, UniProt Q9UBN6 56-211, limits assumed); assay: as above
T3 construct: Commercial protein; not shown: His tag
T3 sequence (looked up): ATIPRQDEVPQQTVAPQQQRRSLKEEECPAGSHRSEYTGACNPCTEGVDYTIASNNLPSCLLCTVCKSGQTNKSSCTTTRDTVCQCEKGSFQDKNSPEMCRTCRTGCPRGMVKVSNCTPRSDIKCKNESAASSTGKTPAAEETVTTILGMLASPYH

[12] = molecular target: T4, DR4-His-EC (Lot: 090222-P, E coli.) (human, UniProt O00220 24-239, limits assumed); assay: as above
T4 construct: it may mean extracellular or E. coli; also called TRAIL-R1; not shown: His tag
T4 sequence (looked up): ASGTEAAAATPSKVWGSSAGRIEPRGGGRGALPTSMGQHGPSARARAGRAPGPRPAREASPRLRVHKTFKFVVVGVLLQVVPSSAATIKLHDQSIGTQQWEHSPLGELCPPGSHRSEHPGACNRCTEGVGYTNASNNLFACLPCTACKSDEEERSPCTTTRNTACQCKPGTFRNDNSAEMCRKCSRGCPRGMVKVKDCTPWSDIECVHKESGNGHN

[13] = repeated experiment, Taxol group
[14] = Irinotecan 50 mg/kg i.v. BiW × 6 times
[15] = repeated experiment, Irinotecan group
[16] = Gemcitabine 60 mg/kg i.p. Q3d × 6W
[17] = Gemcitabine 60 mg/kg i.p. Q3d × 6W, listed as gemcitabine
[18] = repeated experiment, gemcitabine group

## CC(=O)O[C@H]1C(=O)[C@@]2(C)[C@H]([C@H](OC(=O)c3ccccc3)[C@]3(O)C[C@H](OC(=O)[C@H](O)[C@@H](NC(=O)c4ccccc4)c4ccccc4)C(C)=C1C3(C)C)[C@]1(OC(C)=O)CO[C@@H]1C[C@@H]2O [Taxol, reference compound]
[1]; Taxol 24 mg/kg i.p. Q6d × 6W
  T/C % (Calculated using tumor volumes): 55.33%
  TGI (Calculated using tumor weight): 47.18%
  Time of tumor volume changed significantly: 11
  Tumor Volume Mean ± SEM: 1.08 ± 0.12 cm^3
  Tumor weight Mean ± SEM: 0.87 ± 0.12 g
[1]; Taxol group, HuCTB006 0.2 mg/kg group
  Bodyweights: decreased, but were maintained at an acceptable level
[1]; first experiment
  Tumor regression: none was observed
[1]; repeated experiment
  Tumor regression: none was observed
[1]; [13]
  TGI (Calculated using tumor volume): 54.28%
  TGI (Calculated using tumor weight): 50.44%

## CCc1c2c(nc3ccc(OC(=O)N4CCC(N5CCCCC5)CC4)cc13)-c1cc3c(c(=O)n1C2)COC(=O)[C@]3(O)CC [Irinotecan, reference compound]
[2]; [14]
  TGI (Calculated using tumor weight): 99.58%*
  Tumor weight Mean ± SEM: 0.003 ± 0.002 g
[2]; Irinotecan 50 mg/kg i.v. BiW × 6 times, listed as irinotecan
  TGI (Calculated using tumor weight): 99.58%
[2]; combination: Day 24 and Day 31, irinotecan: Day 35
  Animals showing tumor regression: one animal
[3]; [14]
  Tumor weight Mean ± SEM: 0.11 ± 0.02 g
[3]; first experiment, treatment groups
  Tumor regression: none was found
[3]; [15]
  TGI calculated using the tumor weights: 93.76%
[4]; [14]
  Tumor weight Mean ± SEM: 0.26 ± 0.04 g
[4]; [15]
  TGI (Calculated using tumor weight): 72.30%
[5]
  TGI (Calculated using tumor weight): 93.46%*
  Tumor weight Mean ± SEM: 0.04 ± 0.00 g
[5]; listed as irinotecan
  TGI (Calculated using tumor weight): 93.46%

## N.N.[Cl][Pt][Cl] [Cisplatin, cisplatin, reference compound]
[6]
  T/C % (Calculated using tumor volumes): 72.14%
  TGI (Calculated using tumor volumes): 31.45%
  TGI (Calculated using tumor weight): 32.66%
  Time of tumor volume changed significantly: 7
  Tumor Volume Mean ± SEM: 0.73 ± 0.06 cm^3
  Tumor weight Mean ± SEM: 0.48 ± 0.08 g
[6]; listed as cisplatin
  TGI (Calculated using tumor volumes): 31.45%
  TGI (Calculated using tumor weight): 32.66%

## O=c1[nH]cc(F)c(=O)[nH]1 [5-Fu, 5-fluorouracil, reference compound]
[7]
  TGI (calculated using the tumor volumes of Day 30): 37.95%

## Nc1ccn([C@@H]2O[C@H](CO)[C@@H](O)C2(F)F)c(=O)n1 [Gemcitabine, reference compound]
[8]; [16]
  TGI (Calculated using tumor volumes): 52.60%**
  TGI (Calculated using tumor weight): 55.66%*
  Time of tumor volume changed significantly: 10 days after first treatment
  Tumor Volume Mean ± SEM: 1.60 ± 0.11 cm^3
  Tumor weight Mean ± SEM: 0.84 ± 0.07 g
[8]; [17]
  TGI (Calculated using tumor volumes): 52.60%
  TGI (Calculated using tumor weight): 55.66%
[8]; first experiment
  Tumor regression: not found in the chemotherapy group
[8]; repeated experiment
  Tumor regression: not found in the chemotherapy group alone
[8]; [18]
  TGI calculated based on the tumor volume: 34.33%
  TGI calculated based on the tumor weight: 31.30%
[8]; treatment groups over the time
  Bodyweights of mice: decreased significantly by the third dosing

B1: HuCTB006, human chimeric anti-TRAIL-R2 (DR5) monoclonal antibody (antibody, human IgG1, V domains shown)
VH: EVQLQQSGPELVKPGASVRMSCKASGYTFTSYFIHWVKQRPGQGLEWIGWIYPGNVNTKYSEKFKGKATLTADKSSSTAYMQFSSLTSEDSAVYFCARGEAGYFDYWGQGTTLTVSS
VL: DIVMTQSHKFMSTSVGDRVSITCKASQDVSTAVAWYQQKPGQSPRLLIYWASTRHTGVPDRFTGSGSGTDYTLTISSVQAEDQALYYCQQHYRTPWTFGGGTKLEIKR
notes: also called human CTB006
[9]
  binding result: no binding (tested: 200, 40 and 8 ng/mL)
[10]
  binding result: no binding (tested: 200, 40 and 8 ng/mL)
[11]
  binding result: no binding (tested: 200, 40 and 8 ng/mL)
[12]
  binding result: no binding (tested: 200, 40 and 8 ng/mL)
